Read-outs that look alike come from different tables or passages of the source.
What was measured:
OsSRT1 [1] = biological target: T1, OsSRT1 (Oryza sativa, UniProt B8ARK7); experiment: auto-ADP-ribosylation, anti-biotin western blot; type: biochemical
T1 construct: gene SRT1; OsSRT1 gene (483 aa) in pET30a (BamHI/EcoRI), His-tagged, E. coli BL21(DE3), HisTrap purified; tag removal not mentioned
T1 sequence (B8ARK7 1-483): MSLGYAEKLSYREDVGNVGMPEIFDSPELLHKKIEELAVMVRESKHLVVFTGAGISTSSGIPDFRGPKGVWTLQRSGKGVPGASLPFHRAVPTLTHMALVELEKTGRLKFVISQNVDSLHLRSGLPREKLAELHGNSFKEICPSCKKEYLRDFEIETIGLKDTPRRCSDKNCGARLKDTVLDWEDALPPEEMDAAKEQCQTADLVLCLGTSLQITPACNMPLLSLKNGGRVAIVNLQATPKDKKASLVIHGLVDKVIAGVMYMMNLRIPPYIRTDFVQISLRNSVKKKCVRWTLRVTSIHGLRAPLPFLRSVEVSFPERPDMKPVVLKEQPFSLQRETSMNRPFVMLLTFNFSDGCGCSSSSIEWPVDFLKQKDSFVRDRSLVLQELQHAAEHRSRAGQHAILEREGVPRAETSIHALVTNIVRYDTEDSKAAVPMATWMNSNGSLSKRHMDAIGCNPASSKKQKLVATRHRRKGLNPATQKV

OsSRT1 [2] = biological target: T1, OsSRT1; experiment: auto-ADP-ribosylation, anti-biotin dot blot, Michaelis-Menten fit; type: biochemical; conditions: 6 nM OsSRT1, 0-100 µM Bio-NAD+, pH 7.5, 25°C; auto-ADPr without H3; labelled compound

| Compound | IC50 (OsSRT1 [1]) | further results |
| --- | --- | --- |
| O=C(O)c1cccnc1 [nicotinic acid] | 32 ± 4 µM | – |
| NC(=O)c1cccnc1 [nicotinamide] | 26 ± 2 µM | – |
| Nc1ncnc2c1ncn2[C@@H]1O[C@H](COP(=O)(O)OP(=O)(O)OC[C@H]2OC(O)[C@H](O)[C@@H]2O)[C@@H](O)[C@H]1O (stereo partly shown) [ADP-ribose] | – | IC50 (OsSRT1 [1]; auto-ADPr with Bio-NAD+, standard buffer 50 mM Tris pH 7.5, 150 mM NaCl, 10 mM DTT, 75 μM NAD+, 40 μM Bio-NAD+, 25°C, 1 h, product inhibition): 18 ± 4 µM |
| Bio-NAD^+ | – | Km (OsSRT1 [2]): 37.4 ± 4 µM |

From paper doi:10.1101/2021.06.18.449075v2, “Understanding the mechanism of monoADP ribosylation in OsSRT1 and its linkage to DNA repair system under stress conditions” (biorxiv, 2021)
